For one assay, the system named is PDX TNBC Model CTG-1453. The experiment in a line: Antitumor effects in PDX mouse model of TNBC. The format is in vivo. The settings on record: PDX model CTG-1453; A 10 mg/kg SC BID 3 days on/4 off ×4; B 7.5 mg/kg PO BID×28; versus vehicle. A digest of the protocol: (§1)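 Single mice per arm in each PDX were given 7.5 mg/kg oral PI3K/mTOR inhibitor BID×28, 10 mg/kg subcutaneous CHK1 inhibitor BID [3 days on/4 off]×4, or both. Efficacy comes from geometric-mean relative tumor volume (final/baseline) versus vehicle.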

A further assay deals with PDX TNBC Model ST848. The experiment in a line: Antitumor effects in PDX mouse model of TNBC. The assay is classed as in vivo. The settings on record: A 10 mg/kg SC BID 3 days on/4 off ×4, B 7.5 mg/kg PO BID×28, versus vehicle. A digest of the protocol:
as §1

For the molecule `COc1cccc(OCCCN)c1-c1cc(Nc2cnc(C#N)cn2)n[nH]1.CS(=O)(=O)O` [Compound A, 5-(5-(2-(3-aminopropoxy)-6-methoxyphenyl)-1H-pyrazol-3-ylamino)pyrazine-2-carbonitrile methanesulfonate hydrate], the entries for the “% Rsp. (% ΔT/ΔC or % Regression)” value in the assay with PDX TNBC Model CTG-1453 and with PDX TNBC Model ST848 were 2.3% and −50.0%, respectively.

For `CO[C@@H](C)Cn1c(=O)n(C)c2cnc3ccc(-c4cncc(C(C)(C)O)c4)cc3c21` [Compound B, 8-[5-(1-hydroxy-1-methylethyl)pyridin-3-yl]-1-[(2S)-2-methoxypropyl]-3-methyl-1,3-dihydro-2H-imidazo[4,5-c]quinolin-2-one], the “% Rsp. (% ΔT/ΔC or % Regression)” value in the assay on PDX TNBC Model CTG-1453 is on record as −6.9%; with PDX TNBC Model ST848, 24.6%.

The values are drawn from patent US20180228795A1, “COMBINATION THERAPY FOR CANCER” (Eli Lilly and Company, priority 2015, published 2018).
